In PubChem BioAssay (NCI):
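Tested at 5 concentrations; 48 h exposure; 96-well plates; endpoints linearly interpolated, else capped at highest concentration. The concentration for full growth arrest is given as TGI.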

Experiments:
Assay in all cases: growth of human tumour cells (NCI), 48 h
786-0 renal = tested on: 786-0 renal
A498 renal = tested on: A498 renal
ACHN renal = tested on: ACHN renal
BT-549 breast = tested on: BT-549 breast
CAKI-1 renal = tested on: CAKI-1 renal
CCRF-CEM leukemia = tested on: CCRF-CEM leukemia
COLO 205 colon = tested on: COLO 205 colon
DU-145 prostate = tested on: DU-145 prostate
EKVX NSCLC = tested on: EKVX NSCLC
HCC-2998 colon = tested on: HCC-2998 colon
HCT-116 colon = tested on: HCT-116 colon
HCT-15 colon = tested on: HCT-15 colon
HL-60(TB) leukemia = tested on: HL-60(TB) leukemia
HOP-62 NSCLC = tested on: HOP-62 NSCLC
HOP-92 NSCLC = tested on: HOP-92 NSCLC
HS 578T breast = tested on: HS 578T breast
HT29 colon = tested on: HT29 colon
IGROV1 ovarian = tested on: IGROV1 ovarian
K-562 leukemia = tested on: K-562 leukemia
KM12 colon = tested on: KM12 colon
LOX IMVI melanoma = tested on: LOX IMVI melanoma
M14 melanoma = tested on: M14 melanoma
MCF7 breast = tested on: MCF7 breast
MDA-MB-231 breast = tested on: MDA-MB-231 breast
MDA-MB-435 = tested on: MDA-MB-435
MOLT-4 leukemia = tested on: MOLT-4 leukemia
NCI-H226 lung = tested on: NCI-H226 lung
NCI-H23 lung = tested on: NCI-H23 lung
NCI-H460 lung = tested on: NCI-H460 lung
NCI/ADR-RES ovarian = tested on: NCI/ADR-RES ovarian
OVCAR-4 ovarian = tested on: OVCAR-4 ovarian
OVCAR-8 ovarian = tested on: OVCAR-8 ovarian
PC-3 prostate = tested on: PC-3 prostate
RPMI-8226 leukemia = tested on: RPMI-8226 leukemia
RXF 393 renal = tested on: RXF 393 renal
SF-268 CNS = tested on: SF-268 CNS
SF-295 CNS = tested on: SF-295 CNS
SF-539 CNS = tested on: SF-539 CNS
SK-MEL-2 melanoma = tested on: SK-MEL-2 melanoma
SK-MEL-28 melanoma = tested on: SK-MEL-28 melanoma
SK-MEL-5 melanoma = tested on: SK-MEL-5 melanoma
SK-OV-3 ovarian = tested on: SK-OV-3 ovarian
SNB-19 CNS = tested on: SNB-19 CNS
SNB-75 CNS = tested on: SNB-75 CNS
SR leukemia = tested on: SR leukemia
SW-620 colon = tested on: SW-620 colon
T-47D breast = tested on: T-47D breast
TK-10 renal = tested on: TK-10 renal
U251 CNS = tested on: U251 CNS
UACC-257 melanoma = tested on: UACC-257 melanoma
UACC-62 melanoma = tested on: UACC-62 melanoma
UO-31 renal = tested on: UO-31 renal
A549 NSCLC = tested on: A549 NSCLC
MDA-N = tested on: MDA-N
NCI-H522 lung = tested on: NCI-H522 lung
OVCAR-3 ovarian = tested on: OVCAR-3 ovarian
OVCAR-5 ovarian = tested on: OVCAR-5 ovarian
SN12C renal = tested on: SN12C renal

Measured: TGI

CCOC(=O)c1nc2ccc(C(F)(F)F)cc2nc1Oc1ccc(C#N)cc1
88.5 µM: COLO 205 colon
36.5 µM: HS 578T breast | UACC-62 melanoma
28 µM: SNB-75 CNS
35.6 µM: 786-0 renal
30.5 µM: SK-MEL-2 melanoma
46 µM: SK-OV-3 ovarian
59.1 µM: CAKI-1 renal
37.7 µM: MCF7 breast
77.9 µM: HT29 colon
> 100 µM: ACHN renal | CCRF-CEM leukemia | HCC-2998 colon | HCT-116 colon | HCT-15 colon | HL-60(TB) leukemia | K-562 leukemia | KM12 colon | LOX IMVI melanoma | MDA-MB-435 | MOLT-4 leukemia | NCI-H23 lung | NCI-H460 lung | RPMI-8226 leukemia | SK-MEL-28 melanoma | SK-MEL-5 melanoma | SR leukemia | SW-620 colon | T-47D breast | UO-31 renal
84.3 µM: TK-10 renal
42.9 µM: M14 melanoma
31.5 µM: SF-295 CNS
57.1 µM: A498 renal
46.4 µM: OVCAR-8 ovarian
48.9 µM: NCI/ADR-RES ovarian
36 µM: PC-3 prostate
83.8 µM: OVCAR-4 ovarian
61.1 µM: U251 CNS
37.8 µM: RXF 393 renal
28.5 µM: IGROV1 ovarian
30.2 µM: EKVX NSCLC
38.1 µM: DU-145 prostate
65.8 µM: UACC-257 melanoma
27.9 µM: MDA-MB-231 breast
34.8 µM: NCI-H226 lung
47.2 µM: HOP-92 NSCLC
35.3 µM: SNB-19 CNS
28.9 µM: HOP-62 NSCLC
33.6 µM: SF-268 CNS
36.8 µM: BT-549 breast
36.7 µM: SF-539 CNS

CCC1=NC(C(F)(F)F)(C(F)(F)F)N=C(N2CCOCC2)O1
> 100 µM: A549 NSCLC | ACHN renal | CAKI-1 renal | CCRF-CEM leukemia | COLO 205 colon | DU-145 prostate | EKVX NSCLC | HCC-2998 colon | HCT-116 colon | HCT-15 colon | HL-60(TB) leukemia | HOP-92 NSCLC | HS 578T breast | HT29 colon | IGROV1 ovarian | K-562 leukemia | KM12 colon | LOX IMVI melanoma | M14 melanoma | MCF7 breast | MDA-MB-231 breast | MDA-MB-435 | MDA-N | MOLT-4 leukemia | NCI-H23 lung | NCI-H460 lung | NCI-H522 lung | NCI/ADR-RES ovarian | OVCAR-3 ovarian | OVCAR-4 ovarian | OVCAR-5 ovarian | OVCAR-8 ovarian | PC-3 prostate | RPMI-8226 leukemia | RXF 393 renal | SF-268 CNS | SF-295 CNS | SF-539 CNS | SK-MEL-2 melanoma | SK-MEL-28 melanoma | SK-MEL-5 melanoma | SK-OV-3 ovarian | SN12C renal | SNB-19 CNS | SNB-75 CNS | SR leukemia | SW-620 colon | T-47D breast | TK-10 renal | U251 CNS | UACC-257 melanoma | UACC-62 melanoma | UO-31 renal
